What was measured:
[1] = Aqueous solubility; type: physicochemical
Procedure: Two specific toxicity assays have been performed to assess hepatoxicity and cardiotoxicity. Hepatotoxicity was evaluated in isolated hepatocytes from swiss mice and determined by the MTT colorimetric assay. Cardiotoxicity was evaluated using the commercially available Predictor hERG fluorescence polarization kit (Thermo Fisher Scientific). Several ADME assays have been carried out on the compounds generated throughout the project. The following experiments were undertaken: Stability in human microsomes, binding to human plasma protein, and CYP3A4 inhibition assay (Vivid CYP3A4 assay, Thermo Fisher Scientific). Physico-chemical properties were also assessed such as aqueous solubility and chemical stability.

[2] = test system: Myocardial Infarction Model; assay: Cardiac fibrosis and collagen immunostaining in the myocardial infarction model; type: in vivo, mice; conditions: MI model, 100 mg/kg/day in food admix, three months
Description: After assessment of cardiac hemodynamics, the heart was removed, and the atria and the ventricles were separated and weighed individually. A section of the left ventricle was immersed in Bouin fixative solution. After fixation, the sections were dehydrated and embedded in paraffin. From these sections, […] histologic slices were obtained and were stained with Sirius Red. For the measurement of cardiac collagen density, slides were examined and photographed under a light microscope (Zeiss) at 40× magnification. Collagen content was calculated as percentage of collagen area to total area of the image. Perivascular collagen was excluded from the analysis.
Frozen mid-LV sections are thawed at room temperature (30 min), immersed in acetone, rinsed in PBS (1×) and immersed in BSA (10 min each). Slides are then incubated with primary rabbit anti-human collagen-I Ab (Abcam ab 34710) (dilution 1/1000) and primary goat anti-human collagen-III Ab (Rnd NBP1 26547) (dilution 1/500) for 1 hour. Thereafter, slides are rinsed three times in PBS (1×) before being incubated with secondary antibodies donkey […] coupled with FITC (Jackson immunosearch 715-095-151) and donkey anti-goat coupled with Cy3 (Interchim A50-201D3) (dilution 1/400). After three rinses in PBS (1×), slides are mounted with a cover slip on a vecatshield+DAPI medium (Vector Laboratories). A minimum of 8/slide microscopic photographs (×20) were taken from Axiocam-Z1 (Zeiss) fluorescence microscope and analyzed with Image Pro-plus Software. Results are shown as mean±esm.

Structure (SMILES): CC(=O)c1cccc(S(=O)(=O)NCc2ccccc2-n2cccn2)c1 [GPZ614741]
- Aquous solubility [1]: 100%
- solubility in aqueous buffers (solubility test) [1]: perfectly soluble
- LV interstitial collagen density ([2]; FIG. 9 panel A): significant decrease
- Col I immunostaining ([2]; FIG. 9 panel B): decrease
- Col III immunostaining ([2]; FIG. 9 panel C): decrease

Reference: patent publication US20220054493A1, “INHIBITORS OF NGAL PROTEIN” (INSERM (INSTITUT NATIONAL DE LA SANTÉ ET DE LA RECHERCHE …, priority 2019, published 2022)
